Reference: ChEMBL document CHEMBL4507303, “Data for DCP probe TP-004” (2021)

What was measured:
[1] = test system: Tyrosine-protein kinase ABL1 (Homo sapiens), P00519 [F317L]; settings: Compound concentration 1000.0 nM
[2] = test system: Tyrosine-protein kinase ABL1 (Homo sapiens), P00519 [H396P]; settings: Compound concentration 1000.0 nM
[3] = test system: Tyrosine-protein kinase ABL1 (Homo sapiens), P00519 [Q252H]; settings: Compound concentration 1000.0 nM
[4] = molecular target: Tyrosine-protein kinase ABL1 (Homo sapiens) (UniProt P00519); settings: Compound concentration 1000.0 nM
[5] = molecular target: Activin receptor type-2A (Homo sapiens) (UniProt P27037); settings: Compound concentration 1000.0 nM
[6] = molecular target: 5'-AMP-activated protein kinase catalytic subunit alpha-2 (Homo sapiens) (UniProt P54646); settings: Compound concentration 1000.0 nM
[7] = molecular target: Tyrosine-protein kinase receptor UFO (Homo sapiens) (UniProt P30530); settings: Compound concentration 1000.0 nM
[8] = molecular target: Calcium/calmodulin-dependent protein kinase type 1B (Homo sapiens) (UniProt Q6P2M8); settings: Compound concentration 1000.0 nM
[9] = molecular target: Calcium/calmodulin-dependent protein kinase type 1G (Homo sapiens) (UniProt Q96NX5); settings: Compound concentration 1000.0 nM
[10] = molecular target: Calcium/calmodulin-dependent protein kinase type II subunit beta (Homo sapiens) (UniProt Q13554); settings: Compound concentration 1000.0 nM
[11] = molecular target: Calcium/calmodulin-dependent protein kinase type II subunit delta (Homo sapiens) (UniProt Q13557); settings: Compound concentration 1000.0 nM
[12] = molecular target: Serine/threonine-protein kinase Chk1 (Homo sapiens) (UniProt O14757); settings: Compound concentration 1000.0 nM
[13] = molecular target: Epithelial discoidin domain-containing receptor 1 (Homo sapiens) (UniProt Q08345); settings: Compound concentration 1000.0 nM
[14] = test system: Epidermal growth factor receptor (Homo sapiens), P00533 [L858R,T790M]; settings: Compound concentration 1000.0 nM
[15] = molecular target: Ephrin type-A receptor 4 (Homo sapiens) (UniProt P54764); settings: Compound concentration 1000.0 nM
[16] = molecular target: Serine/threonine-protein kinase/endoribonuclease IRE1 (Homo sapiens) (UniProt O75460); settings: Compound concentration 1000.0 nM
[17] = test system: Receptor-type tyrosine-protein kinase FLT3 (Homo sapiens), P36888 [K663Q]; settings: Compound concentration 1000.0 nM
[18] = test system: Receptor-type tyrosine-protein kinase FLT3 (Homo sapiens), P36888 [R834Q]; settings: Compound concentration 1000.0 nM
[19] = molecular target: Vascular endothelial growth factor receptor 3 (Homo sapiens) (UniProt P35916); settings: Compound concentration 1000.0 nM
[20] = molecular target: Inhibitor of nuclear factor kappa-B kinase subunit epsilon (Homo sapiens) (UniProt Q14164); settings: Compound concentration 1000.0 nM
[21] = test system: Mast/stem cell growth factor receptor Kit (Homo sapiens), P10721 [D816H]; settings: Compound concentration 1000.0 nM
[22] = molecular target: Tyrosine-protein kinase Lck (Homo sapiens) (UniProt P06239); settings: Compound concentration 1000.0 nM
[23] = molecular target: Leukocyte tyrosine kinase receptor (Homo sapiens) (UniProt P29376); settings: Compound concentration 1000.0 nM
[24] = molecular target: Mitogen-activated protein kinase kinase kinase 3 (Homo sapiens) (UniProt Q99759); settings: Compound concentration 1000.0 nM
[25] = molecular target: Mitogen-activated protein kinase kinase kinase kinase 4 (Homo sapiens) (UniProt O95819); settings: Compound concentration 1000.0 nM
[26] = molecular target: MAP kinase-activated protein kinase 2 (Homo sapiens) (UniProt P49137); settings: Compound concentration 1000.0 nM
[27] = molecular target: MAP kinase-activated protein kinase 5 (Homo sapiens) (UniProt Q8IW41); settings: Compound concentration 1000.0 nM
[28] = molecular target: Misshapen-like kinase 1 (Homo sapiens) (UniProt Q8N4C8); settings: Compound concentration 1000.0 nM
[29] = molecular target: Serine/threonine-protein kinase Nek1 (Homo sapiens) (UniProt Q96PY6); settings: Compound concentration 1000.0 nM
[30] = molecular target: Serine/threonine-protein kinase PAK 1 (Homo sapiens) (UniProt Q13153); settings: Compound concentration 1000.0 nM
[31] = molecular target: Phosphatidylinositol 4,5-bisphosphate 3-kinase catalytic subunit gamma isoform (Homo sapiens) (UniProt P48736); settings: Compound concentration 1000.0 nM
[32] = molecular target: RAF proto-oncogene serine/threonine-protein kinase (Homo sapiens) (UniProt P04049); settings: Compound concentration 1000.0 nM
[33] = molecular target: Receptor-interacting serine/threonine-protein kinase 4 (Homo sapiens) (UniProt P57078); settings: Compound concentration 1000.0 nM
[34] = molecular target: Uncharacterized serine/threonine-protein kinase SBK3 (Homo sapiens) (UniProt P0C264); settings: Compound concentration 1000.0 nM
[35] = molecular target: SRSF protein kinase 1 (Homo sapiens) (UniProt Q96SB4); settings: Compound concentration 1000.0 nM
[36] = molecular target: Dual specificity testis-specific protein kinase 1 (Homo sapiens) (UniProt Q15569); settings: Compound concentration 1000.0 nM
[37] = molecular target: Testis-specific serine/threonine-protein kinase 3 (Homo sapiens) (UniProt Q96PN8); settings: Compound concentration 1000.0 nM
[38] = molecular target: Serine/threonine-protein kinase WNK4 (Homo sapiens) (UniProt Q96J92); settings: Compound concentration 1000.0 nM
[39] = molecular target: 5-hydroxytryptamine receptor 1B (Homo sapiens) (UniProt P28222); settings: Compound concentration 10.0 uM
[40] = molecular target: D(1A) dopamine receptor (Homo sapiens) (UniProt P21728); settings: Compound concentration 10.0 uM
[41] = molecular target: Histamine H3 receptor (Homo sapiens) (UniProt Q9Y5N1); settings: Compound concentration 10.0 uM
[42] = molecular target: Alpha-2A adrenergic receptor (Homo sapiens) (UniProt P08913); settings: Compound concentration 10.0 uM
[43] = molecular target: Beta-2 adrenergic receptor (Homo sapiens) (UniProt P07550); settings: Compound concentration 10.0 uM
[44] = molecular target: Muscarinic acetylcholine receptor M2 (Homo sapiens) (UniProt P08172); settings: Compound concentration 10.0 uM
[45] = molecular target: Muscarinic acetylcholine receptor M3 (Homo sapiens) (UniProt P20309); settings: Compound concentration 10.0 uM

Serine/threonine-protein kinase/endoribonuclease IRE1 (Homo sapiens), sequence (O75460 19-977 limits assumed): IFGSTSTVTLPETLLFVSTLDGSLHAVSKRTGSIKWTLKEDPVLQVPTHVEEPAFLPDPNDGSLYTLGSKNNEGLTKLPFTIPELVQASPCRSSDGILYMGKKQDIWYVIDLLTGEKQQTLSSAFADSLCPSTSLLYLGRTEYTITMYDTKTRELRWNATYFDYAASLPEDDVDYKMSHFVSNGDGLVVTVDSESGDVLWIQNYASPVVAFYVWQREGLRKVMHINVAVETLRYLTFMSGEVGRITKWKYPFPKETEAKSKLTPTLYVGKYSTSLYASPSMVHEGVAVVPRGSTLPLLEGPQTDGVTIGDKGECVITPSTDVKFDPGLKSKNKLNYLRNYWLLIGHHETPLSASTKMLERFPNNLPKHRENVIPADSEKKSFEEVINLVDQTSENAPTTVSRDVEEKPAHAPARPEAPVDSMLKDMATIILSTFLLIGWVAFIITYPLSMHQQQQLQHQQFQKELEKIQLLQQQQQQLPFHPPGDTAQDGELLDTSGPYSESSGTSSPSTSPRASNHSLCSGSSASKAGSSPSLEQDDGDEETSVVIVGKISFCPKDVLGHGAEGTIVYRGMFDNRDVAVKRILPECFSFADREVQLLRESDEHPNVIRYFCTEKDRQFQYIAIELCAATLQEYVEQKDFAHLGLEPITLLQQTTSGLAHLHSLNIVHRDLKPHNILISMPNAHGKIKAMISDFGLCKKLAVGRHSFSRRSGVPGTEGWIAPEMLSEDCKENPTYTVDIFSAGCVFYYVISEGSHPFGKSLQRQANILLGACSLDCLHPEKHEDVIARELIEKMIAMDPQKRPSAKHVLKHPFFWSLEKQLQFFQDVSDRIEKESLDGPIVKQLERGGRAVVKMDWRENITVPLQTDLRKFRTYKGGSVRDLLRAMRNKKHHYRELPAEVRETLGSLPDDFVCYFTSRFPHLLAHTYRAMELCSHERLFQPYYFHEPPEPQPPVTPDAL
Misshapen-like kinase 1 (Homo sapiens), sequence (Q8N4C8 whole entry, looked up): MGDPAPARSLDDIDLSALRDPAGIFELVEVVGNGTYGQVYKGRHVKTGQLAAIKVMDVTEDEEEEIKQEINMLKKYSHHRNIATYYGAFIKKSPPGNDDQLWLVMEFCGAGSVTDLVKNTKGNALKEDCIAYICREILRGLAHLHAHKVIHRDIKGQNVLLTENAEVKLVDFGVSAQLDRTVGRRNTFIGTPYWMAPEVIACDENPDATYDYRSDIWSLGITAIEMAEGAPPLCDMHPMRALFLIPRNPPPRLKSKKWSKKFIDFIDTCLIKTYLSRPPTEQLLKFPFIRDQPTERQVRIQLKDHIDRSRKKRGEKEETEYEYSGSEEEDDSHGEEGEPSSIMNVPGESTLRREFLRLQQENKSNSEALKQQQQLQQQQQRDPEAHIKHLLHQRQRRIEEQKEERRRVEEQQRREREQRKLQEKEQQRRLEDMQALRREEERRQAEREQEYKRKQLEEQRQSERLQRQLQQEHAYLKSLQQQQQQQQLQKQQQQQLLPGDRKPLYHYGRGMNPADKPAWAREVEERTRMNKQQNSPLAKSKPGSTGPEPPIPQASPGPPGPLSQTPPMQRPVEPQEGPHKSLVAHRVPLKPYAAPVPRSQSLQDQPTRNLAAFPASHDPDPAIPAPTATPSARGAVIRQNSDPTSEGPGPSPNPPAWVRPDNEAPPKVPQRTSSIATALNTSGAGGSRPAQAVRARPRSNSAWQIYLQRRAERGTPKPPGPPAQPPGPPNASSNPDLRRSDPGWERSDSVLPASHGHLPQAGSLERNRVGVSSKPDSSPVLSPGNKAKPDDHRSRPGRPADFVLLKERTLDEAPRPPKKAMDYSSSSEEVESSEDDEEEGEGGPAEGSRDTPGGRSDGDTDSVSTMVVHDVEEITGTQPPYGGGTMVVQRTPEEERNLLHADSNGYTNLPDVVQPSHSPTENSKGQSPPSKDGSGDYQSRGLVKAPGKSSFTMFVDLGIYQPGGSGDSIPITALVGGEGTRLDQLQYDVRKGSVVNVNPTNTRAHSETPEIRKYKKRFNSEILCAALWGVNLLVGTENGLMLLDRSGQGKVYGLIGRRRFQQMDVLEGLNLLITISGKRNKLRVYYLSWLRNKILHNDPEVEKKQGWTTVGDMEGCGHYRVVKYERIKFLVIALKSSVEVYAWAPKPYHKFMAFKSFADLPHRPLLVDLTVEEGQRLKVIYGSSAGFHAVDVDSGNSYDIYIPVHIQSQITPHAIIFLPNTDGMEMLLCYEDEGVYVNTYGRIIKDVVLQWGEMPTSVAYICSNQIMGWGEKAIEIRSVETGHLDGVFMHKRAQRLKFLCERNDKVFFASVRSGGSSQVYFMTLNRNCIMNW
Activin receptor type-2A (Homo sapiens), sequence (P27037 whole entry): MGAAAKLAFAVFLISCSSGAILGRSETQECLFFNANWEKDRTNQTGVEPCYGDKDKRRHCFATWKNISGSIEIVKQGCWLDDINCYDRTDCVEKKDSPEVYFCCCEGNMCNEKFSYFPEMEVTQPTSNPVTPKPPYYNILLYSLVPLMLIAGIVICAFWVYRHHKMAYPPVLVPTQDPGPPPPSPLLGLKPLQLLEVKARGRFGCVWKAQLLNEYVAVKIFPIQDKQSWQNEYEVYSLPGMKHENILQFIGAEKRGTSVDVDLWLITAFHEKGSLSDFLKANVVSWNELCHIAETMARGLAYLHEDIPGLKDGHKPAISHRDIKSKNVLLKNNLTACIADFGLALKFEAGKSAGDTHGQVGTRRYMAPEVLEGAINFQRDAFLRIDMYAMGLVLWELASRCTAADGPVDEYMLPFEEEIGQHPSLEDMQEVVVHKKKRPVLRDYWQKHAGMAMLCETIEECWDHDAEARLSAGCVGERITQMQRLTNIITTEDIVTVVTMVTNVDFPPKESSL
5'-AMP-activated protein kinase catalytic subunit alpha-2 (Homo sapiens), sequence (P54646 whole entry, looked up): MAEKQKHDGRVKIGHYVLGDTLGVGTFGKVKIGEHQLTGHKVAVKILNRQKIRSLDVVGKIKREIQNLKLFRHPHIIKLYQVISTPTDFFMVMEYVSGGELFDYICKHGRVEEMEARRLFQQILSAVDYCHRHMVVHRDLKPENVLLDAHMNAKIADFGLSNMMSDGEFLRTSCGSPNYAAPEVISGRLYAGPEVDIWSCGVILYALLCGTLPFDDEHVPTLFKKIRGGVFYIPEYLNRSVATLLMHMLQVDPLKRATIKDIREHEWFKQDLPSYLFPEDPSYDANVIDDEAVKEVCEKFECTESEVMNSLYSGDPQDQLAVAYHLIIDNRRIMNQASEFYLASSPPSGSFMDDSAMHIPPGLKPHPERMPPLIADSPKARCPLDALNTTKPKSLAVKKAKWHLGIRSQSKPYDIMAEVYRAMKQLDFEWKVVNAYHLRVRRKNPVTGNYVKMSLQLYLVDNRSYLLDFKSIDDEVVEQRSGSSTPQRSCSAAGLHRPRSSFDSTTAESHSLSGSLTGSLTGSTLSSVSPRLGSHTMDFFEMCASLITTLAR
Serine/threonine-protein kinase Nek1 (Homo sapiens), sequence (Q96PY6 whole entry): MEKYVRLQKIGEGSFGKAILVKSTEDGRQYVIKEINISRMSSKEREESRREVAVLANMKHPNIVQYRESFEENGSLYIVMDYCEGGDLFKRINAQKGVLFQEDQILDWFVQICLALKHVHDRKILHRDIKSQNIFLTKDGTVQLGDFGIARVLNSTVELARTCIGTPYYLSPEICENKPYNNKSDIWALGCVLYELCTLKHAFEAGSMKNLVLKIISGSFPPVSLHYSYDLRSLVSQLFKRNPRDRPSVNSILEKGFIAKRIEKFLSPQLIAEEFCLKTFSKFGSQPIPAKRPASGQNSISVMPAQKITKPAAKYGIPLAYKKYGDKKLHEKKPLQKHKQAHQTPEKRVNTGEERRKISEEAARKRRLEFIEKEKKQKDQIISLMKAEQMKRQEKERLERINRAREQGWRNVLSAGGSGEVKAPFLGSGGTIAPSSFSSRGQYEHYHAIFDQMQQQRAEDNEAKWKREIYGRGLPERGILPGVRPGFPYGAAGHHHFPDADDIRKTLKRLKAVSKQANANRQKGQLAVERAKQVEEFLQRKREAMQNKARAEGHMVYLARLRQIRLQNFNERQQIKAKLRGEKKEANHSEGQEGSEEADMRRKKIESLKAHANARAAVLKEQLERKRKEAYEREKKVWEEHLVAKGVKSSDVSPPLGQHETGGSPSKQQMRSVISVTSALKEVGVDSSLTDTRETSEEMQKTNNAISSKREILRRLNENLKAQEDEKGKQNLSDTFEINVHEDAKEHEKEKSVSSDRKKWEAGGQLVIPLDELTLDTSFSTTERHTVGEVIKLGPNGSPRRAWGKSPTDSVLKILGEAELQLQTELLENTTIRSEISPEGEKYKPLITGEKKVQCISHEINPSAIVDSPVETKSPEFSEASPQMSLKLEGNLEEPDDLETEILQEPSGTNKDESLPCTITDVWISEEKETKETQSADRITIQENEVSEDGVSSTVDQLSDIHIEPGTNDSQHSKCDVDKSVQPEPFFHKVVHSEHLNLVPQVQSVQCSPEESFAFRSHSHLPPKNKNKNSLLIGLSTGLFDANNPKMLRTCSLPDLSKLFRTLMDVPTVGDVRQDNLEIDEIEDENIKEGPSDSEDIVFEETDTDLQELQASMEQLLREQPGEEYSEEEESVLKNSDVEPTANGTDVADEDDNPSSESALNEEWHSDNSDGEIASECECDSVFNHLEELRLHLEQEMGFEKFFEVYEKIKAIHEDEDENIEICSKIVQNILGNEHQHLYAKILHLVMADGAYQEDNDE
Testis-specific serine/threonine-protein kinase 3 (Homo sapiens), sequence (Q96PN8 whole entry): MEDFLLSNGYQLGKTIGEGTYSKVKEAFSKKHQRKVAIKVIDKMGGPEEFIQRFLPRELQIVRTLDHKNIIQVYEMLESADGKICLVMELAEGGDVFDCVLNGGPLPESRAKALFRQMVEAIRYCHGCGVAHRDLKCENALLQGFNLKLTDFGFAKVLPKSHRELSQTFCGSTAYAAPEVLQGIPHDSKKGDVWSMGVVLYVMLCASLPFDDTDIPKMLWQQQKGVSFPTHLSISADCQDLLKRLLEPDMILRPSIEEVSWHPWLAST

Cc1nc(N2CC[C@@H](O)C2)ncc1-c1cc(C(F)(F)F)cc2[nH]ncc12 [TP-004]
inactive: residual activity [1] 58% | residual activity [2] 77% | residual activity [3] 91% | residual activity [4] 61% | residual activity [5] 73% | residual activity [6] 100% | residual activity [7] 80% | residual activity [8] 90% | residual activity [9] 100% | residual activity [10] 100% | residual activity [11] 100% | residual activity [12] 100% | residual activity [13] 100% | residual activity [14] 73% | residual activity [15] 100% | residual activity [16] 86% | residual activity [17] 89% | residual activity [18] 73% | residual activity [19] 100% | residual activity [20] 89% | residual activity [21] 53% | residual activity [22] 100% | residual activity [23] 87% | residual activity [24] 82% | residual activity [25] 82% | residual activity [26] 95% | residual activity [27] 68% | residual activity [28] 61% | residual activity [29] 100% | residual activity [30] 100% | residual activity [31] 82% | residual activity [32] 100% | residual activity [33] 60% | residual activity [34] 100% | residual activity [35] 100% | residual activity [36] 94% | residual activity [37] 100% | residual activity [38] 95% | inhibition [39] 22.3% | inhibition [40] 11.1% | inhibition [41] 28.6% | inhibition [42] 10.6% | inhibition [43] -2.23% | inhibition [44] -8.94% | inhibition [45] -2.13%
